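Protocol summary: plate cells (96-well), add compound at 5 concentrations, incubate 48 h, interpolate endpoints linearly. Here, GI50 denotes the concentration required for 50% inhibition of growth.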 Activity calls are given as the source filed them. Rule as the data show it: active = GI50 up to about 1.1 µM and inactive = higher.
Experiments:
Test in all cases: inhibition of tumour cell growth, NCI panel, 48 h
M14 = tested on: M14
MDA-MB-231 = tested on: MDA-MB-231
HT-29 = tested on: HT-29
SN12C = tested on: SN12C
SF-295 = tested on: SF-295
UACC-257 = tested on: UACC-257
MDA-MB-435 = tested on: MDA-MB-435
786-0 = tested on: 786-0
T47D = tested on: T47D
BT-549 = tested on: BT-549
HCC 2998 = tested on: HCC 2998
PC-3 = tested on: PC-3
LOX IMVI = tested on: LOX IMVI
HOP-92 = tested on: HOP-92
UACC-62 = tested on: UACC-62
OVCAR-4 = tested on: OVCAR-4
SF-539 = tested on: SF-539
IGROV-1 = tested on: IGROV-1
CAKI-1 = tested on: CAKI-1
MOLT-4 = tested on: MOLT-4
SW-620 = tested on: SW-620
SNB-75 = tested on: SNB-75
MCF7 = tested on: MCF7
ACHN = tested on: ACHN
UO-31 = tested on: UO-31
A498 = tested on: A498
RXF 393 = tested on: RXF 393
TK-10 = tested on: TK-10
SK-MEL-5 = tested on: SK-MEL-5
MDA-N = tested on: MDA-N
U-251 = tested on: U-251
RPMI-8226 = tested on: RPMI-8226
HL-60 = tested on: HL-60
OVCAR-3 = tested on: OVCAR-3
HCT-15 = tested on: HCT-15
SK-MEL-2 = tested on: SK-MEL-2
NCI-H522 = tested on: NCI-H522
NCI-H226 = tested on: NCI-H226
NCI-H460 = tested on: NCI-H460
K562 = tested on: K562
HCT-116 = tested on: HCT-116
OVCAR-5 = tested on: OVCAR-5
Malme-3M = tested on: Malme-3M
CCRF-CEM = tested on: CCRF-CEM
COLO 205 = tested on: COLO 205
NCI/ADR-RES = tested on: NCI/ADR-RES
SF-268 = tested on: SF-268
A549 = tested on: A549
SNB-19 = tested on: SNB-19
KM12 = tested on: KM12
SR = tested on: SR
SK-OV-3 = tested on: SK-OV-3
SK-MEL-28 = tested on: SK-MEL-28
EKVX = tested on: EKVX
HOP-62 = tested on: HOP-62
NCI-H23 = tested on: NCI-H23
Hs-578T = tested on: Hs-578T
OVCAR-8 = tested on: OVCAR-8
DU-145 = tested on: DU-145

CC1(C)O[C@@H]2C[C@H]3[C@@H]4C[C@H](F)C5=CC(=O)C=C[C@]5(C)[C@@]4(F)[C@@H](O)C[C@]3(C)[C@]2(C(=O)CO)O1 [FLUOCINOLONE ACETONIDE]
GI50 (M14): > 100 µM (inactive) | GI50 (MDA-MB-231): > 100 µM (inactive) | GI50 (HT-29): > 100 µM (inactive) | GI50 (SN12C): 12 µM (inactive) | GI50 (SF-295): > 100 µM (inactive) | GI50 (UACC-257): > 89.3 µM (inactive) | GI50 (MDA-MB-435): > 100 µM (inactive) | GI50 (786-0): > 100 µM (inactive) | GI50 (T47D): > 100 µM (inactive) | GI50 (BT-549): > 100 µM (inactive) | GI50 (HCC 2998): > 100 µM (inactive) | GI50 (PC-3): > 72.6 µM (inactive) | GI50 (LOX IMVI): > 100 µM (inactive) | GI50 (HOP-92): > 100 µM (inactive) | GI50 (UACC-62): > 100 µM (inactive) | GI50 (OVCAR-4): > 89.1 µM (inactive) | GI50 (SF-539): > 100 µM (inactive) | GI50 (IGROV-1): > 100 µM (inactive) | GI50 (CAKI-1): > 100 µM (inactive) | GI50 (MOLT-4): > 83.8 µM (inactive) | GI50 (SW-620): > 100 µM (inactive) | GI50 (SNB-75): > 100 µM (inactive) | GI50 (MCF7): > 100 µM (inactive) | GI50 (ACHN): > 100 µM (inactive) | GI50 (UO-31): > 87.5 µM (inactive) | GI50 (A498): > 100 µM (inactive) | GI50 (RXF 393): > 100 µM (inactive) | GI50 (TK-10): > 100 µM (inactive) | GI50 (SK-MEL-5): > 100 µM (inactive) | GI50 (MDA-N): > 100 µM (inactive) | GI50 (U-251): > 100 µM (inactive) | GI50 (RPMI-8226): < 0.01 µM (active) | GI50 (HL-60): > 100 µM (inactive) | GI50 (OVCAR-3): > 100 µM (inactive) | GI50 (HCT-15): > 100 µM | GI50 (SK-MEL-2): > 100 µM (inactive) | GI50 (NCI-H522): > 100 µM (inactive) | GI50 (NCI-H226): > 85.1 µM (inactive) | GI50 (NCI-H460): > 100 µM (inactive) | GI50 (K562): > 100 µM (inactive) | GI50 (HCT-116): > 100 µM (inactive) | GI50 (OVCAR-5): > 100 µM (inactive) | GI50 (Malme-3M): > 100 µM (inactive) | GI50 (CCRF-CEM): < 0.01 µM (active) | GI50 (COLO 205): > 100 µM (inactive) | GI50 (NCI/ADR-RES): > 100 µM (inactive) | GI50 (SF-268): > 100 µM (inactive) | GI50 (A549): > 100 µM (inactive) | GI50 (SNB-19): > 100 µM (inactive) | GI50 (KM12): > 100 µM (inactive) | GI50 (SR): > 100 µM (inactive) | GI50 (SK-OV-3): > 72.3 µM (inactive) | GI50 (SK-MEL-28): > 100 µM (inactive) | GI50 (EKVX): > 100 µM (inactive) | GI50 (HOP-62): > 100 µM (inactive) | GI50 (NCI-H23): > 100 µM (inactive) | GI50 (Hs-578T): > 100 µM (inactive) | GI50 (OVCAR-8): > 100 µM (inactive) | GI50 (DU-145): > 100 µM (inactive)

CC[C@@]1(O)C(=O)OCc2c1cc1n(c2=O)Cc2c-1nc1ccccc1c2/C=N\NC(=O)C[n+]1ccccc1
GI50 (M14): 0.457 µM (active) | GI50 (MDA-MB-231): 64.6 µM (inactive) | GI50 (HT-29): 2.33 µM (inactive) | GI50 (SN12C): 0.119 µM (active) | GI50 (SF-295): 0.247 µM (active) | GI50 (UACC-257): 2.82 µM (inactive) | GI50 (MDA-MB-435): 3.56 µM (inactive) | GI50 (786-0): 0.231 µM (active) | GI50 (T47D): 0.0346 µM (active) | GI50 (BT-549): 7.57 µM (inactive) | GI50 (HCC 2998): 8.13 µM (inactive) | GI50 (PC-3): 4.49 µM (inactive) | GI50 (LOX IMVI): 0.218 µM (active) | GI50 (HOP-92): 3.14 µM (inactive) | GI50 (UACC-62): 0.0541 µM (active) | GI50 (OVCAR-4): 8.57 µM (inactive) | GI50 (SF-539): 0.0752 µM (active) | GI50 (IGROV-1): 7.08 µM (inactive) | GI50 (CAKI-1): 0.151 µM (active) | GI50 (MOLT-4): 0.0552 µM (active) | GI50 (SW-620): 1.33 µM (inactive) | GI50 (SNB-75): 0.23 µM (active) | GI50 (MCF7): 0.0735 µM (active) | GI50 (ACHN): 0.0531 µM (active) | GI50 (UO-31): 0.29 µM (active) | GI50 (A498): 2.78 µM (inactive) | GI50 (RXF 393): 0.76 µM (active) | GI50 (TK-10): 20.5 µM (inactive) | GI50 (SK-MEL-5): 0.366 µM (active) | GI50 (MDA-N): 4.02 µM (inactive) | GI50 (U-251): 0.261 µM (active) | GI50 (RPMI-8226): 1.67 µM (inactive) | GI50 (HL-60): 0.225 µM (active) | GI50 (OVCAR-3): 7.78 µM (inactive) | GI50 (HCT-15): 2.9 µM | GI50 (SK-MEL-2): 37.6 µM (inactive) | GI50 (NCI-H522): 0.991 µM (active) | GI50 (NCI-H226): 0.991 µM (active) | GI50 (NCI-H460): 0.117 µM (active) | GI50 (K562): 1.02 µM (active) | GI50 (HCT-116): 0.783 µM (active) | GI50 (OVCAR-5): 6.18 µM (inactive) | GI50 (Malme-3M): 3.95 µM (inactive) | GI50 (CCRF-CEM): 0.0357 µM (active) | GI50 (COLO 205): 12.1 µM (inactive) | GI50 (NCI/ADR-RES): 0.817 µM (active) | GI50 (SF-268): 0.115 µM (active) | GI50 (A549): 0.513 µM (active) | GI50 (SNB-19): 0.267 µM (active) | GI50 (KM12): 8.55 µM (inactive) | GI50 (SR): 0.0411 µM (active) | GI50 (SK-OV-3): 0.617 µM (active) | GI50 (SK-MEL-28): 3.29 µM (inactive) | GI50 (EKVX): > 28.1 µM (inactive) | GI50 (HOP-62): 0.164 µM (active) | GI50 (NCI-H23): 0.388 µM (active) | GI50 (Hs-578T): > 64.1 µM (inactive) | GI50 (OVCAR-8): 0.398 µM (active) | GI50 (DU-145): 0.0944 µM (active)

CCO/C=N/C1=C(C#N)SC2=N/C(=C\c3ccccc3)C(=O)N21
GI50 (M14): > 100 µM (inactive) | GI50 (MDA-MB-231): > 100 µM (inactive) | GI50 (HT-29): > 100 µM (inactive) | GI50 (SN12C): > 100 µM (inactive) | GI50 (SF-295): > 100 µM (inactive) | GI50 (UACC-257): > 100 µM (inactive) | GI50 (MDA-MB-435): > 100 µM (inactive) | GI50 (786-0): > 100 µM (inactive) | GI50 (T47D): 86.9 µM (inactive) | GI50 (BT-549): > 100 µM (inactive) | GI50 (HCC 2998): > 100 µM (inactive) | GI50 (PC-3): > 100 µM (inactive) | GI50 (LOX IMVI): > 100 µM (inactive) | GI50 (HOP-92): > 100 µM (inactive) | GI50 (UACC-62): > 100 µM (inactive) | GI50 (OVCAR-4): 57.9 µM (inactive) | GI50 (SF-539): > 100 µM (inactive) | GI50 (IGROV-1): > 100 µM (inactive) | GI50 (CAKI-1): > 100 µM (inactive) | GI50 (MOLT-4): 31.7 µM (inactive) | GI50 (SW-620): > 100 µM (inactive) | GI50 (SNB-75): > 81.3 µM (inactive) | GI50 (MCF7): > 100 µM (inactive) | GI50 (ACHN): > 100 µM (inactive) | GI50 (UO-31): > 100 µM (inactive) | GI50 (A498): > 85.1 µM (inactive) | GI50 (RXF 393): > 100 µM (inactive) | GI50 (TK-10): > 89.1 µM (inactive) | GI50 (SK-MEL-5): > 100 µM (inactive) | GI50 (MDA-N): > 100 µM (inactive) | GI50 (U-251): > 100 µM (inactive) | GI50 (RPMI-8226): > 58.1 µM (inactive) | GI50 (HL-60): 23.9 µM (inactive) | GI50 (OVCAR-3): > 100 µM (inactive) | GI50 (HCT-15): > 100 µM | GI50 (SK-MEL-2): > 100 µM (inactive) | GI50 (NCI-H522): > 100 µM (inactive) | GI50 (NCI-H226): 97.3 µM (inactive) | GI50 (NCI-H460): > 100 µM (inactive) | GI50 (K562): 41.9 µM (inactive) | GI50 (HCT-116): > 100 µM (inactive) | GI50 (OVCAR-5): > 100 µM (inactive) | GI50 (Malme-3M): > 100 µM (inactive) | GI50 (CCRF-CEM): 60.5 µM (inactive) | GI50 (COLO 205): > 100 µM (inactive) | GI50 (NCI/ADR-RES): > 100 µM (inactive) | GI50 (SF-268): > 100 µM (inactive) | GI50 (A549): > 100 µM (inactive) | GI50 (SNB-19): > 100 µM (inactive) | GI50 (KM12): > 100 µM (inactive) | GI50 (SR): 39.4 µM (inactive) | GI50 (SK-OV-3): > 100 µM (inactive) | GI50 (SK-MEL-28): > 100 µM (inactive) | GI50 (EKVX): 77.3 µM (inactive) | GI50 (HOP-62): > 100 µM (inactive) | GI50 (NCI-H23): > 100 µM (inactive) | GI50 (Hs-578T): > 100 µM (inactive) | GI50 (OVCAR-8): > 100 µM (inactive) | GI50 (DU-145): > 100 µM (inactive)
